Test system: A375P cell line (melanoma)
Assay: Proliferation inhibition activity against A375P cell line (MTT assay)
Type: cell-based
Conditions: A375P melanoma cells; for GI50: MTT assay, read-out: A375P (GI50); for effects against A375P: statement in words
Description: Measurement of Proliferation Inhibition Activity Against A375P Cell Line (Melanoma)
An A375P cell line purchased from ATCC was cultured in a DMEM medium [containing 10% FBS, 1% penicillin/streptomycin] at 37° C. in the presence of 5% CO2. The cultured A375P cell line was taken using 0.05% trypsin-0.02% EDTA, and seeded into a 96-well plate at a density of 5×10^3 cells per well.
Cell viability was measured using an MTT [3-(4,5-dimethylthiazol-2-yl)-2,5-diphenyltetrazolium bromide] assay (CellTiter 96 Assay, Promega) as follows. 15 μl of dye was placed per well, the cells were cultured for 2 hours, and then treated with 100 μl of a stop solution, and after 24 hours, absorbance was measured. One day after plating, they were treated with compounds. For treatment with compounds, […] of stock was prepared, and serially diluted to one-third in dimethyl sulfoxide (DMSO) to prepare a 12-point test compound plate, and 0.5 μl was added (final concentration DMSO 0.5%).
In the following Tables 1 to 3, in a case of GI50 being 10 to 30 μM, it was indicated as (+), in a case of it being 1 to 10 μM, it was indicated as (++), and in case of being less than 1 μM, it was indicated as (+++).

GI50 [µM] | Structure (SMILES) | effects against A375P
10 to 30 | O=C1CC(c2ccc(NC(=O)c3ccc(Cl)cc3)cc2)=Nc2cscc2N1 [Example 13, 4-chloro-N-(4-(2-oxo-2,3-dihydro-1H-thieno[3,4-b][1,4]diazepine-4-yl)phenyl)benzamide] | 
10 to 30 | N#Cc1ccccc1Sc1ccccc1C(=O)Nc1ccc(C2=Nc3cscc3NC(=O)C2)cc1 [Example 15, 2-(2-cyanophenylthio)-N-(4-(2-oxo-2,3-dihydro-1H-thieno[3,4-b][1,4]diazepine-4-yl)phenyl)benzamide] | 
10 to 30 | O=C1CC(c2cccc(NC(=O)c3ccc(Cl)cc3)c2)=Nc2cscc2N1 [Example 30, 4-chloro-N-(3-(2-oxo-2,3-dihydro-1H-thieno[3,4-b][1,4]diazepine-4-yl)phenyl)benzamide] | 
10 to 30 | O=C1CC(c2cccc(NC(=O)Nc3cc(Cl)cc(Cl)c3)c2)=Nc2cscc2N1 [Example 51, 1-(3,5-dichlorophenyl)-3-(3-(2-oxo-2,3-dihydro-1H-thieno[3,4-b][1,4]diazepine-4-yl)phenyl)urea] | 
10 to 30 | O=C1CC(c2ccc(NC(=O)c3ccccc3-c3ccccc3)cc2)=Nc2cscc2N1 [Example 6, N-(4-(2-oxo-2,3-dihydro-1H-thieno[3,4-b][1,4]diazepine-4-yl)phenyl)biphenyl-2-carboxamide] | 
< 1 | O=C1CC(c2ccc(NC(=O)Nc3ccc(Cl)c(C(F)(F)F)c3)cc2)=Nc2cscc2N1 [Example 39, 1-(4-chloro-3-(trifluoromethyl)phenyl)-3-(4-(2-oxo-2,3-dihydro-1H-thieno[3,4-b][1,4]diazepine-4-yl)phenyl)urea] | significant effects
10 to 30 | N#Cc1ccccc1Sc1ccccc1C(=O)Nc1cccc(C2=Nc3cscc3NC(=O)C2)c1 [Example 32, 2-(2-cyanophenylthio)-N-(3-(2-oxo-2,3-dihydro-1H-thieno[3,4-b][1,4]diazepine-4-yl)phenyl)benzamide] | 
1 to 10 | O=C1CC(c2ccc(NC(=O)c3ccc(N4CCOCC4)c(C(F)(F)F)c3)cc2)=Nc2cscc2N1 [Example 4, 4-morpholino-N-(4-(2-oxo-2,3-dihydro-1H-thieno[3,4-b][1,4]diazepine-4-yl)phenyl)-3-(trifluoromethyl)benzamide] | 
10 to 30 | O=C1CC(c2cccc(NC(=O)C(c3ccc(Cl)cc3)c3ccc(Cl)cc3)c2)=Nc2cscc2N1 [Example 26, 2,2-bis(4-chlorophenyl)-N-(3-(2-oxo-2,3-dihydro-1H-thieno[3,4-b][1,4]diazepine-4-yl)phenyl)acetamide] | 
< 1 | Cc1cn(-c2cc(C(=O)Nc3ccc(C4=Nc5cscc5NC(=O)C4)cc3)cc(C(F)(F)F)c2)cn1 [Example 2, 3-(4-methyl-1H-imidazol-1-yl)-N-(4-(2-oxo-2,3-dihydro-1H-thieno[3,4-b][1,4]diazepine-4-yl)phenyl)-5-(trifluoromethyl)benzamide] | significant effects
1 to 10 | O=C1CC(c2ccc(NC(=O)c3ccc(Cl)c(C(F)(F)F)c3)cc2)=Nc2cscc2N1 [Example 1, 4-chloro-N-(4-(2-oxo-2,3-dihydro-1H-thieno[3,4-b][1,4]diazepine-4-yl)phenyl)-3-(trifluoromethyl)benzamide] | 
10 to 30 | Cc1cn(-c2cc(C(=O)Nc3cccc(C4=Nc5cscc5NC(=O)C4)c3)cc(C(F)(F)F)c2)cn1 [Example 19, 3-(4-methyl-1H-imidazol-1-yl)-N-(3-(2-oxo-2,3-dihydro-1H-thieno[3,4-b][1,4]diazepine-4-yl)phenyl)-5-(trifluoromethyl)benzamide] | 
1 to 10 | O=C1CC(c2cccc(NC(=O)c3ccc(Cl)c(C(F)(F)F)c3)c2)=Nc2cscc2N1 [Example 18, 4-chloro-N-(3-(2-oxo-2,3-dihydro-1H-thieno[3,4-b][1,4]diazepine-4-yl)phenyl)-3-(trifluoromethyl)benzamide] | 
10 to 30 | O=C1CC(c2ccc(NC(=O)C(c3ccc(Cl)cc3)c3ccc(Cl)cc3)cc2)=Nc2cscc2N1 [Example 9, 2,2-bis(4-chlorophenyl)-N-(4-(2-oxo-2,3-dihydro-1H-thieno[3,4-b][1,4]diazepine-4-yl)phenyl)acetamide] | 
